Assay [1] deals with Staphylococcus aureus. In words: Antibacterial activity against Staphylococcus aureus assessed per disk. It counts as functional.
The subject of assay [2] is Micrococcus sp. Description: Antibacterial activity against Micrococcus sp. assessed per disk. It counts as functional.

`CCOC1=CC(=O)C(O)=C(C[C@]2(C)[C@@H](C)CC[C@@]3(C)C(C)=CCC[C@@H]23)C1=O`: the MIC in assay [1] and in assay [2] was 50 µg in each case.
As for `COC1=CC(=O)C(O)=C(C[C@]2(C)[C@@H](C)CC[C@@]3(C)C(C)=CCC[C@@H]23)C1=O`, the MIC in assay [1] and in assay [2] was 20 µg in each case.

For the origin of these results see ChEMBL document CHEMBL1150056, “5-Epi-isospongiaquinone, a new sesquiterpene/quinone antibiotic from an Australian marine sponge, Spongia hispida” (1992).
